Test [1] has as its system VRE (E. faecalis) ATCC 51575. The test is classed as cell-based, Enterococcus faecalis. To be noted: ATCC 51575, 18 h. Put shortly:
(§1)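 Mid-log cultures grown in CAMHB and diluted to 1× 10^6 cfu/ml in PBS were mixed with an equal volume of peptide in CAMHB (80 µM to 0.63 µM twofold dilutions). MIC taken as the mean of three independent experiments.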

Test [2] has as its system MRAB (A. baumannii) ATCC BAA 1605. The test is classed as cell-based, Acinetobacter baumannii. Particulars: ATCC BAA 1605, 18 h. In outline: as §1
The subject of test [3] is MRPA (P. aeruginosa) CCARM 2180. The test is classed as cell-based, Pseudomonas aeruginosa. To be noted: CCARM 2180, 18 h. In outline:
as §1

Test [4] has as its system MRSA (S. aureus) KCCM 40510. The test is classed as cell-based, Staphylococcus aureus. Particulars: KCCM 40510, 18 h. Put shortly: as §1

SMILES strings stand for the structures. Converted amounts (≈) assume the structure as drawn. Square brackets hold non-standard residues; d marks the D form. Peptide text beside a SMILES is read from it.

Consider `CC[C@@H](C)[C@@H](NC(=O)[C@@H](Cc1c[nH]c2ccccc12)NC(=O)[C@@H](C)NC(=O)[C@@H](C)NC(=O)[C@H](N)Cc1c[nH]c2ccccc12)C(=O)NCC(=O)N[C@H](CC(C)C)C(=O)N[C@H](CCCNC(=N)N)C(=O)N[C@H](CCCNC(=N)N)C(=O)N[C@H](CCCCN)C(=O)N[C@H](CCCCN)C(N)=O` [KSH76, waawiglrrkk] (H-[dW][dA][dA][dW][dI]G[dL][dR][dR][dK][dK]-NH2; N-terminus assumed), for which, in test [1], the “MIC VRE (E. faecalis) ATCC 51575” value is greater than 10 µM. Further, the “MIC MRAB (A. baumannii) ATCC BAA 1605” value in test [2] is on record as 1.25~2.5 µM. Moreover, the “MIC MRPA (P. aeruginosa) CCARM 2180” value in test [3] is reported as greater than 10 µM. Also, the “MIC MRSA (S. aureus) KCCM 40510” value in test [4] is greater than 10 µM.

With `CC[C@@H](C)[C@@H](NC(=O)[C@@H](Cc1c[nH]c2ccccc12)NC(=O)[C@@H](CCCNC(=N)N)NC(=O)[C@@H](CCCNC(=N)N)NC(=O)[C@H](N)CCCNC(=N)N)C(=O)N[C@H](Cc1c[nH]c2ccccc12)C(=O)N[C@@H](C(=O)N[C@H](CC(C)C)C(=O)N[C@H](Cc1c[nH]c2ccccc12)C(=O)N[C@H](CCCCN)C(=O)N[C@H](CC(N)=O)C(N)=O)C(C)C` [KSH68, rrrwiwvlwkn] (H-[dR][dR][dR][dW][dI][dW][dV][dL][dW][dK][dN]-NH2; N-terminus assumed), the “MIC VRE (E. faecalis) ATCC 51575” value in test [1] is 1.25 µM (≈ 2.01 µg/mL). Moreover, in test [2], the “MIC MRAB (A. baumannii) ATCC BAA 1605” value is given as 0.63 µM (≈ 1.02 µg/mL). Moreover, the “MIC MRPA (P. aeruginosa) CCARM 2180” value in test [3] is given as 2.5 µM (≈ 4.03 µg/mL). Besides, the “MIC MRSA (S. aureus) KCCM 40510” value in test [4] amounted to 1.25 µM (≈ 2.01 µg/mL).

Consider `CC(C)[C@@H](NC(=O)[C@H](N)Cc1c[nH]c2ccccc12)C(=O)N[C@@H](C(=O)N[C@H](Cc1c[nH]c2ccccc12)C(=O)N[C@@H](C(=O)N[C@H](Cc1c[nH]c2ccccc12)C(=O)N[C@H](CCCCN)C(=O)N[C@H](CCCCN)C(=O)N[C@H](CCCCN)C(N)=O)C(C)C)C(C)C` [KSH66, wvvwvwkkk] (H-[dW][dV][dV][dW][dV][dW][dK][dK][dK]-NH2; N-terminus assumed), for which the “MIC VRE (E. faecalis) ATCC 51575” value in test [1] is given as 0.63 µM (≈ 0.792 µg/mL). Also, in test [2], the “MIC MRAB (A. baumannii) ATCC BAA 1605” value turned out to be 1.25 µM (≈ 1.57 µg/mL). Further, the “MIC MRPA (P. aeruginosa) CCARM 2180” value in test [3] was greater than 10 µM. In addition, the “MIC MRSA (S. aureus) KCCM 40510” value in test [4] was 1.25 µM (≈ 1.57 µg/mL).

As for `CC[C@@H](C)[C@@H](NC(=O)[C@@H](Cc1c[nH]c2ccccc12)NC(=O)[C@@H](CCCNC(=N)N)NC(=O)[C@@H](CCCNC(=N)N)NC(=O)[C@H](N)CCCNC(=N)N)C(=O)N[C@H](Cc1c[nH]c2ccccc12)C(=O)N[C@H](Cc1c[nH]c2ccccc12)C(=O)N[C@H](CC(C)C)C(=O)N[C@H](Cc1c[nH]c2ccccc12)C(=O)N[C@H](CCCCN)C(N)=O` [KSH50, rrrwiwwlwk] (H-[dR][dR][dR][dW][dI][dW][dW][dL][dW][dK]-NH2; N-terminus assumed), the “MIC VRE (E. faecalis) ATCC 51575” value in test [1] worked out at 1.25 µM (≈ 1.98 µg/mL). The “MIC MRAB (A. baumannii) ATCC BAA 1605” value in test [2] was determined as 0.63 µM (≈ 0.999 µg/mL). For the same molecule, the “MIC MRPA (P. aeruginosa) CCARM 2180” value in test [3] was 2.5 µM (≈ 3.96 µg/mL). The “MIC MRSA (S. aureus) KCCM 40510” value in test [4] worked out at 1.25 µM (≈ 1.98 µg/mL).

Regarding `CC(C)[C@@H](NC(=O)[C@H](N)Cc1c[nH]c2ccccc12)C(=O)N[C@@H](C(=O)N[C@H](Cc1c[nH]c2ccccc12)C(=O)N[C@@H](C(=O)N[C@@H](C(=O)N[C@H](Cc1c[nH]c2ccccc12)C(=O)N[C@H](CCCCN)C(=O)N[C@H](CCCCN)C(=O)N[C@H](CCCCN)C(N)=O)C(C)C)C(C)C)C(C)C` [KSH67, wvvwvvwkkk] (H-[dW][dV][dV][dW][dV][dV][dW][dK][dK][dK]-NH2; N-terminus assumed), the “MIC VRE (E. faecalis) ATCC 51575” value in test [1] turned out to be 0.63 µM (≈ 0.855 µg/mL). Also, the “MIC MRAB (A. baumannii) ATCC BAA 1605” value in test [2] is on record as 1.25 µM (≈ 1.7 µg/mL). In test [3], the “MIC MRPA (P. aeruginosa) CCARM 2180” value was found to be 5 µM (≈ 6.78 µg/mL). In addition, the “MIC MRSA (S. aureus) KCCM 40510” value in test [4] came out at 0.63 µM (≈ 0.855 µg/mL).

As for `CC(C)[C@@H](NC(=O)[C@@H](Cc1c[nH]c2ccccc12)NC(=O)[C@@H](CCCNC(=N)N)NC(=O)[C@@H](CCCNC(=N)N)NC(=O)[C@H](N)CCCNC(=N)N)C(=O)N[C@@H](C(=O)N[C@@H](C(=O)N[C@@H](C(=O)N[C@H](Cc1c[nH]c2ccccc12)C(=O)N[C@H](Cc1c[nH]c2ccccc12)C(N)=O)C(C)C)C(C)C)C(C)C` [KSH85, rrrwvvvvww] (H-[dR][dR][dR][dW][dV][dV][dV][dV][dW][dW]-NH2; N-terminus assumed), the “MIC VRE (E. faecalis) ATCC 51575” value in test [1] came out at 1.25 µM (≈ 1.8 µg/mL). Moreover, the “MIC MRAB (A. baumannii) ATCC BAA 1605” value in test [2] came out at 10 µM (≈ 14.4 µg/mL). The “MIC MRPA (P. aeruginosa) CCARM 2180” value in test [3] turned out to be 10 µM (≈ 14.4 µg/mL). Moreover, the “MIC MRSA (S. aureus) KCCM 40510” value in test [4] stood at 1.25 µM (≈ 1.8 µg/mL).

Turning to `CC[C@@H](C)[C@@H](NC(=O)[C@@H](Cc1c[nH]c2ccccc12)NC(=O)[C@H](NC(=O)[C@@H](CC(C)C)NC(=O)[C@H](N)Cc1c[nH]c2ccccc12)[C@H](C)CC)C(=O)NCC(=O)N[C@H](CC(C)C)C(=O)N[C@H](CCCNC(=N)N)C(=O)N[C@H](CCCCN)C(=O)N[C@H](CCCCN)C(=O)N[C@H](CCCNC(=N)N)C(N)=O` [KSH I, wliwiglrkk r] (H-[dW][dL][dI][dW][dI]G[dL][dR][dK][dK][dR]-NH2; N-terminus assumed), the “MIC VRE (E. faecalis) ATCC 51575” value in test [1] amounted to 2.5 µM (≈ 3.67 µg/mL). Also, the “MIC MRAB (A. baumannii) ATCC BAA 1605” value in test [2] turned out to be 1.25 µM (≈ 1.83 µg/mL). For the same molecule, in test [3], the “MIC MRPA (P. aeruginosa) CCARM 2180” value was 10 µM (≈ 14.7 µg/mL). Moreover, the “MIC MRSA (S. aureus) KCCM 40510” value in test [4] came out at 2.5 µM (≈ 3.67 µg/mL).

As to `CC(C)[C@@H](NC(=O)[C@@H](Cc1c[nH]c2ccccc12)NC(=O)[C@@H](CCCNC(=N)N)NC(=O)[C@@H](CCCNC(=N)N)NC(=O)[C@H](N)CCCNC(=N)N)C(=O)N[C@H](Cc1c[nH]c2ccccc12)C(=O)N[C@@H](C(=O)N[C@@H](C(=O)N[C@H](Cc1c[nH]c2ccccc12)C(=O)N[C@H](Cc1c[nH]c2ccccc12)C(N)=O)C(C)C)C(C)C` [KSH81, rrrwvwvvww] (H-[dR][dR][dR][dW][dV][dW][dV][dV][dW][dW]-NH2; N-terminus assumed), the “MIC VRE (E. faecalis) ATCC 51575” value in test [1] worked out at 1.25 µM (≈ 1.91 µg/mL). Besides, the “MIC MRAB (A. baumannii) ATCC BAA 1605” value in test [2] is listed as 10 µM (≈ 15.3 µg/mL). Also, the “MIC MRPA (P. aeruginosa) CCARM 2180” value in test [3] is given as 5 µM (≈ 7.64 µg/mL). Also, the “MIC MRSA (S. aureus) KCCM 40510” value in test [4] came to 1.25 µM (≈ 1.91 µg/mL).

As to `CC[C@@H](C)[C@@H](NC(=O)[C@@H](Cc1c[nH]c2ccccc12)NC(=O)[C@@H](C)NC(=O)[C@@H](C)NC(=O)[C@H](N)Cc1c[nH]c2ccccc12)C(=O)NCC(=O)N[C@H](CC(C)C)C(=O)N[C@H](CCCNC(=N)N)C(=O)N[C@H](CCCNC(=N)N)C(N)=O` [KSH78, waawiglrr] (H-[dW][dA][dA][dW][dI]G[dL][dR][dR]-NH2; N-terminus assumed), the “MIC VRE (E. faecalis) ATCC 51575” value in test [1] was greater than 10 µM. Moreover, the “MIC MRAB (A. baumannii) ATCC BAA 1605” value in test [2] is 5 µM (≈ 5.64 µg/mL). Also, in test [3], the “MIC MRPA (P. aeruginosa) CCARM 2180” value is on record as greater than 10 µM. In addition, in test [4], the “MIC MRSA (S. aureus) KCCM 40510” value was greater than 10 µM.

Take `CC(C)[C@@H](NC(=O)[C@@H](Cc1c[nH]c2ccccc12)NC(=O)CNC(=O)[C@@H](CCCNC(=N)N)NC(=O)[C@@H](CCCNC(=N)N)NC(=O)[C@H](N)CCCNC(=N)N)C(=O)N[C@H](Cc1c[nH]c2ccccc12)C(=O)N[C@@H](C(=O)N[C@@H](C(=O)N[C@H](Cc1c[nH]c2ccccc12)C(=O)N[C@H](CCCCN)C(N)=O)C(C)C)C(C)C` [KSH90, rrrgwvwvvwk] (H-[dR][dR][dR]G[dW][dV][dW][dV][dV][dW][dK]-NH2; N-terminus assumed): the “MIC VRE (E. faecalis) ATCC 51575” value in test [1] is reported as 1.25 µM (≈ 1.91 µg/mL). The “MIC MRAB (A. baumannii) ATCC BAA 1605” value in test [2] amounted to 5 µM (≈ 7.63 µg/mL). For the same molecule, the “MIC MRPA (P. aeruginosa) CCARM 2180” value in test [3] stood at 5 µM (≈ 7.63 µg/mL). For the same molecule, in test [4], the “MIC MRSA (S. aureus) KCCM 40510” value was 1.25 µM (≈ 1.91 µg/mL).

Values taken from patent publication US20230287044A1, “NOVEL ANTIBACTERIAL PEPTIDE AND USE THEREOF” (priority 2020, published 2023).
